Test results from patent US12508280B2, “Formulations for improving gut health” (DSM IP ASSETS B.V., priority 2018, dated 2025).

Assays:
[1] = test system: fecal microbial community; assay: Microbiome composition by shotgun sequencing: alpha diversity (first set); assay type: cell-based, human; conditions: after 24 h fermentation, vs corresponding control
[2] = test system: genes involved in Acetyl-CoA fermentation to Butyrate pathway; assay: Shotgun sequencing functional analysis: butyrate pathway genes (first set); assay type: cell-based, human; conditions: 0.2× dose; after 24 h fermentation; vs corresponding control
[3] = test system: Co-cultures of Caco-2 and HT29-MTX-E12 cells; assay: Barrier integrity (TEER), healthy gut model; assay type: cell-based; conditions: 48 h minus 0 h fermentation samples, vs corresponding control
Experimental: Co-cultures of Caco-2 and HT29-MTX-E12 cells were used to assess the protective effect of the supernatants before (0 h) and after fermentation (48 h) for both sets of in vitro experiments above.
CaCo-2 ECACC 86010202 and HT29-MTX-E12 ECACC 12040401 cells (both from European Collection of Cell Cultures, Salisbury, UK) were both cultured at 37° C., in atmosphere of 5% CO2 in DMEM medium supplemented with 4.5 g/L D-Glucose, 4 mM L-Glutamine, 1 mM Sodium Pyruvate, 1% MEM Non-Essential Amino Acids, 50 μg/mL Gentamicin (Life Technologies Europe B.V., Zug, Switzerland) and 10% heat-inactivated FBS (Sigma-Aldrich, Buchs, Switzerland). Sub-confluent cells were trypsinized using 0.25% Trypsin/EDTA (Life Technologies Europe B.V., Zug, Switzerland) and passaged at a ratio of 1:5-1:10 twice a week. Cells between passages 55 and 85 were used for this study.
Cells were seeded at a density of 20000 cells/well in a 7:3 ratio (Caco-2:HT29-MTX-E12) in Corning HTS Transwell-24 system PET membranes, 0.4 μM pore size, cell growth area 0.33 cm2/well (Corning BV, Amsterdam, Netherlands) and cultured as described above. Media was changed every second to third day.
For both sets of in vitro experiments, after cells being 13 days in culture, initial transepithelial electrical resistance (TEER) readings were obtained using an EVOM2 Voltohmmeter (EVOM, World Precision Instruments, Berlin) equipped with STX100 Electrodes. TEER values correlate with the tightness of the confluent monolayer (Srinivasan et al. 2015).
The background TEER (insert) was subtracted from total TEER (cell monolayer plus insert) to yield the monolayer resistance and then normalized to surface area by multiplying with the area of the insert (Srinivasan et al. 2015). The integrity of the monolayer was determined at basal level by measuring TEER. A TEER of 300 Ωcm2 was regarded as a tight monolayer (see results section). Afterwards, the cells were treated with sterile filtered fermentation supernatants or fermentation medium as a control (diluted 1:20 in growth media). After 24 h incubation the resistance across each cell monolayer was measured again and the percentage change in TEER compared to initial TEER for each insert was calculated to represent a healthy gut model. All TEER measurements were done by placing the plates containing the inserts on a 37° C. warming plate and were performed in the same duration.

[4] = test system: fecal suspension from the selected donor; assay: Gas production in closed colon incubations (first set); assay type: cell-based, human; conditions: after 48 h fermentation, vs corresponding control
Experimental: The colon incubations were performed in closed incubation systems. This allowed us to evaluate the accumulation of gasses in the headspace, which can be measured with a pressure meter. Gas production is a measure of microbial activity, and thus of the speed of fermentation of the potentially prebiotic substrates. It can be used as an indication for bloating and digestive wellbeing upon prebiotic consumption.
Since ethanol is known to have antimicrobial effects, two blanks for each type of stock solution were included. As a source of the microbial community, a freshly prepared fecal suspension from the selected donor was added to the reactors. […] All tests, except the blanks, were performed in single repetition, resulting in 40 independent incubations, as specified in Table 1. Incubation conditions of the pre-screening experiment and the final experiment were 48 h at 37° C., under shaking (90 rpm) and anaerobic conditions. DNA were extracted from effluent samples collected from each fermentation flask before (0 h fermentation) and after fermentation (24 h fermentation) and use for microbiome composition analysis by Shotgun sequencing. Effluent samples were collected from each fermentation flask before (0 h fermentation) and after fermentation (48 h fermentation), sterilized by filtering through 0.22 μm filters and used for short chain fatty acids (SCFA), quantification of immunological biomarkers and in vitro analysis in cell culture systems.
For both sets of in vitro experiments, colon incubations were performed in closed incubation systems as described above. This allowed to evaluate the accumulation of gasses in the headspace, which can be measured with a pressure meter. Gas production is a measure of microbial activity, and thus of the speed of fermentation of the potentially prebiotic substrates

ileal microbiota = assay: Broiler feeding trial, ileal microbiota 16S rRNA sequencing; assay type: in vivo, chickens; conditions: Groups B and C; T2 and T3, significant for T2 only, P<0.0001
From the text: (§1) Each group was sampled three times (i.e., S1=14 days, S2=28 days, S3=38/42 days) in specific days corresponding to when the feed will be changed along the feeding program.
(§2) During each sampling (i.e., S1, S2 and S3) a total of 40 birds/group were humanely euthanized and 9 litter samples will be collected (i.e., 3 samples/group).
(§3) 16S rRNA gene PCR amplification and sequencing. The V3-V4 hypervariable region of the 16S rRNA gene was PCR-amplified using 341F and 785R primers with Illumina overhang adaptors sequences. Amplicons purification was performed by using AMPure XP Beads magnetic beads (Beckman Coulter, Brea, CA). For the indexed library preparation, the Nextera XT DNA Library Prep Kit (Illumina, San Diego, CA) was used. A further magnetic beads purification step was performed and libraries quantified using the Qubit 3.0 fluorimeter (Invitrogen), then pooled at 4 nM. The library pool was denatured with NaOH 0.2 N and diluted to 6 μM. […]
(§4) Bioinformatics and statistics. […] After chimera sequences removal, high-quality reads were filtered and binned into high-resolution operational taxonomic units (OTUs) according to the taxonomic threshold of 99% through an open-reference strategy performed with dada2 (Callahan et al, 2016). […] Alpha diversity was measured using Faith PD index and number of observed OTUs. […]

litter microbiota = assay: Broiler feeding trial, litter microbiota; assay type: in vivo, chickens; conditions: groups A, B, C
From the text: as §1, §2, §3, §4

cecal microbiota = assay: Broiler feeding trial, cecal microbiota 16S rRNA sequencing; assay type: in vivo, chickens
From the text: as §1, §2
DNA extraction from cecal samples: The commercial kit DNeasy PowerSoil kit (Qiagen, Hilden, Germany) has been chosen and applied to all available cecal samples following the manufacturer instructions. DNA yield was measured using a Nanodrop instrument.
16S rRNA gene PCR amplification and sequencing. The V3-V4 hypervariable region of the 16S rRNA gene was PCR-amplified using 341F and 785R primers with Illumina overhang adaptors sequences. Amplicons purification was performed by using AMPure XP Beads magnetic beads (Beckman Coulter, Brea, CA). For the indexed library preparation, the Nextera XT DNA Library Prep Kit (Illumina, San Diego, CA) was used. A further magnetic beads purification step was performed and libraries quantified using the Qubit 3.0 fluorimeter (Invitrogen), then pooled at 4 nM. The library pool was denatured with NaOH 0.2 N and diluted to […]. Sequencing was performed on Illumina MiSeq platform using a 2×250 bp paired end protocol, according to the manufacturer's instructions (Illumina).
Bioinformatics and statistics. Raw sequences were processed using a pipeline combining PANDAseq (Masella et al, 2012) and QIIME2 (Caporaso et al, 201 O; qiime2.org). After chimera sequences removal, high-quality reads were filtered and binned into high-resolution operational taxonomic units (OTUs) according to the taxonomic threshold of 99% through an open-reference strategy performed with dada2 (Callahan et al, 2016). Taxonomy was assigned using the vsearch classifier (Rognes et al, 2016) and SILVA database as reference (Quast et al, 2013). Alpha diversity was measured using Faith PD index and number of observed OTUs. Statistics was performed using R Studio software version 1.0.136 running on R software 3.1.3 (r-project.org/), implemented with the libraries vegan, made4, PMCMR. Beta diversity was estimated by computing weighted UniFrac distances and visualized by Principal Coordinates Analyses (PCoAs). The significance of separation among groups of samples was tested by permutational multivariate analysis of variance using the function adonis of the vegan package. Bacterial phylogenetic groups (genus, family, phylum) showing a minimum relative abundance of 0.5% in at least the 1% of the samples were kept for further analysis and graphical visualization. Compositional differences among group of samples were tested using Kruskal-Wallis test. P values were corrected for multiple comparisons using the Benjamini-Hochberg method.

Molecule	microbiome alpha diversity (Shannon diversity index) ([1]; 0.2× dose)	microbiome alpha diversity (Shannon diversity index) ([1]; 1× dose)	microbiome alpha diversity (Shannon diversity index) ([1]; 5× dose)	relative abundance of genes involved in Acetyl-CoA fermentation to Butyrate pathway [2]	TEER, healthy gut cellular model ([3]; 1× dose)	TEER, healthy gut cellular model ([3]; 5× dose)	gas production ([4]; 1× dose)	gas production ([4]; 5× dose)	ileal species richness (observed OTUs) (ileal microbiota)	litter microbiome bacterial composition and species richness/diversity (litter microbiota)	abundance of family Bacteroidaceae and genus Bacteroides in cecum (cecal microbiota; Group B (50 mg/kg riboflavin), all available time points)	cecal microbiota structure (beta diversity, UniFrac PCoA) (cecal microbiota; Group B (control diet+50 mg/kg riboflavin) vs groups A and C)	abundance of Bifidobacteriaceae in cecum (cecal microbiota; Group C (100 mg/kg riboflavin), from T1 to T3, significant at T2 and T3)	cecal species richness (observed OTUs) (cecal microbiota; Group C (control diet+100 mg/kg riboflavin), time points T2 and T3, P<0.0001)	[Eubacterium] coprostanoligenes group abundance in cecum (cecal microbiota; Groups B and C vs control group A, T2)
Vitamin E	increase microbiome diversity	increase microbiome diversity	increase microbiome diversity	increase relative abundance	increase TEER	increase TEER	reduced gas production	reduced gas production							
Cc1cc2nc3c(=O)[nH]c(=O)nc-3n(C[C@H](O)[C@H](O)[C@H](O)CO)c2cc1C [Vitamin B2, riboflavin]									increase in terms of species richness	no significant differences	significantly higher abundances	different longitudinal trajectory	progressive increase	significant increase in species richness	higher abundance
